In PubChem BioAssay (NCI):
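Growth conditions: 96-well plates. Treatment: test compound, 48 hours, 5 concentrations. Analysis: linear interpolation between bracketing concentrations; unreached endpoints set to highest concentration. Here, GI50 denotes the concentration required for 50% inhibition of growth. TGI marks complete inhibition of growth.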

How the values were obtained:
Test in all cases: NCI anticancer screen, dose series, 48 h
[1] = test system: SW-620 colon
[2] = test system: LOX IMVI melanoma
[3] = test system: COLO 205 colon
[4] = test system: MALME-3M melanoma
[5] = test system: TK-10 renal
[6] = test system: OVCAR-3 ovarian
[7] = test system: OVCAR-4 ovarian
[8] = test system: NCI/ADR-RES ovarian
[9] = test system: NCI-H460 lung
[10] = test system: SK-OV-3 ovarian
[11] = test system: SR leukemia
[12] = test system: UACC-257 melanoma
[13] = test system: HL-60(TB) leukemia
[14] = test system: HOP-62 NSCLC
[15] = test system: NCI-H522 lung
[16] = test system: RXF 393 renal
[17] = test system: SF-539 CNS
[18] = test system: MOLT-4 leukemia
[19] = test system: SNB-75 CNS
[20] = test system: SK-MEL-5 melanoma
[21] = test system: SF-268 CNS
[22] = test system: NCI-H23 lung
[23] = test system: PC-3 prostate
[24] = test system: HCT-116 colon
[25] = test system: HOP-92 NSCLC
[26] = test system: EKVX NSCLC
[27] = test system: ACHN renal
[28] = test system: U251 CNS
[29] = test system: SF-295 CNS
[30] = test system: HCT-15 colon
[31] = test system: MDA-MB-435
[32] = test system: UACC-62 melanoma
[33] = test system: M14 melanoma
[34] = test system: UO-31 renal
[35] = test system: CCRF-CEM leukemia
[36] = test system: NCI-H226 lung
[37] = test system: A549 NSCLC
[38] = test system: T-47D breast
[39] = test system: BT-549 breast
[40] = test system: DU-145 prostate
[41] = test system: SK-MEL-2 melanoma
[42] = test system: SK-MEL-28 melanoma
[43] = test system: HS 578T breast
[44] = test system: K-562 leukemia
[45] = test system: HT29 colon
[46] = test system: OVCAR-5 ovarian
[47] = test system: A498 renal
[48] = test system: 786-0 renal
[49] = test system: KM12 colon
[50] = test system: OVCAR-8 ovarian
[51] = test system: HCC-2998 colon
[52] = test system: CAKI-1 renal
[53] = test system: SNB-19 CNS
[54] = test system: SN12C renal
[55] = test system: IGROV1 ovarian
[56] = test system: MCF7 breast
[57] = test system: RPMI-8226 leukemia
[58] = test system: MDA-MB-231 breast

**Q.** What does the source list for CC(C)(C)c1cc(C(=O)Nc2ccc(C(=O)NCCN)cc2)cc(C(C)(C)C)c1?
**A.** GI50 [1]: 1.84 µM; TGI [1]: 3.65 µM; GI50 [2]: 1.65 µM; TGI [2]: 3.16 µM; GI50 [3]: 1.85 µM; TGI [3]: 3.77 µM; GI50 [4]: 1.43 µM; TGI [4]: 3.13 µM; GI50 [5]: 2.99 µM; TGI [5]: 9.64 µM; GI50 [6]: 2.18 µM; TGI [6]: 4.97 µM; GI50 [7]: 2.71 µM; TGI [7]: 11 µM; GI50 [8]: 14.7 µM; TGI [8]: 35 µM; GI50 [9]: 1.93 µM; TGI [9]: 3.73 µM; GI50 [10]: 5.31 µM; TGI [10]: 20.7 µM; GI50 [11]: 1.47 µM; TGI [11]: 4.82 µM; GI50 [12]: 17.7 µM; TGI [12]: 37.4 µM; GI50 [13]: 1.9 µM; TGI [13]: 3.87 µM; GI50 [14]: 4.5 µM; TGI [14]: 21.8 µM; GI50 [15]: 2.41 µM; TGI [15]: 7.63 µM; GI50 [16]: 1.68 µM; TGI [16]: 3.16 µM; GI50 [17]: 1.68 µM; TGI [17]: 3.41 µM; GI50 [18]: 2.63 µM; TGI [18]: 7.3 µM; GI50 [19]: 4.02 µM; TGI [19]: 24.5 µM; GI50 [20]: 1.74 µM; TGI [20]: 3.15 µM; GI50 [21]: 2.03 µM; TGI [21]: 5.05 µM; GI50 [22]: 3.19 µM; TGI [22]: 14.4 µM; GI50 [23]: 3.07 µM; TGI [23]: 11 µM; GI50 [24]: 3.36 µM; TGI [24]: 12.7 µM; GI50 [25]: 2.82 µM; TGI [25]: 12.6 µM; GI50 [26]: 2.04 µM; TGI [26]: 14.5 µM; GI50 [27]: 4.45 µM; TGI [27]: 18.7 µM; GI50 [28]: 1.91 µM; TGI [28]: 3.88 µM; GI50 [29]: 1.73 µM; TGI [29]: 3.47 µM; GI50 [30]: 4.75 µM; TGI [30]: 19.4 µM; GI50 [31]: 1.52 µM; TGI [31]: 3.09 µM; GI50 [32]: 1.86 µM; TGI [32]: 3.56 µM; GI50 [33]: 1.71 µM; TGI [33]: 3.42 µM; GI50 [34]: 4.68 µM; TGI [34]: 22 µM; GI50 [35]: 2.54 µM; TGI [35]: 7.28 µM; GI50 [36]: 6.43 µM; TGI [36]: 28.1 µM; GI50 [37]: 3.15 µM; TGI [37]: 9.41 µM; GI50 [38]: 2.07 µM; TGI [38]: 5.58 µM; GI50 [39]: 13.1 µM; TGI [39]: 33.6 µM; GI50 [40]: 3.46 µM; TGI [40]: 12.4 µM; GI50 [41]: 2.15 µM; TGI [41]: 4.85 µM; GI50 [42]: 1.79 µM; TGI [42]: 3.67 µM; GI50 [43]: 2.2 µM; TGI [43]: 5.96 µM; GI50 [44]: 1.94 µM; TGI [44]: 5.06 µM; GI50 [45]: 2 µM; TGI [45]: 5.19 µM; GI50 [46]: 6.07 µM; TGI [46]: 22.8 µM; GI50 [47]: 8.27 µM; TGI [47]: 26 µM; GI50 [48]: 1.56 µM; TGI [48]: 3.07 µM; GI50 [49]: 2.22 µM; TGI [49]: 5.14 µM; GI50 [50]: 3.39 µM; TGI [50]: 10.9 µM; GI50 [51]: 1.69 µM; TGI [51]: 3.18 µM; GI50 [52]: 15.5 µM; TGI [52]: 32.9 µM; GI50 [53]: 3.65 µM; TGI [53]: 16.6 µM; GI50 [54]: 1.98 µM; TGI [54]: 3.9 µM

**Q.** Which results are given for NCCCCCNc1noc(Cc2c[nH]c3cc(Br)ccc23)n1?
**A.** GI50 [55]: 5.09 µM; TGI [55]: 27.4 µM; GI50 [1]: 0.707 µM; TGI [1]: 16.9 µM; GI50 [2]: 2.81 µM; TGI [2]: 17.6 µM; GI50 [3]: 1.52 µM; TGI [3]: 3.22 µM; GI50 [4]: 2.59 µM; TGI [4]: 22.7 µM; GI50 [56]: 3.42 µM; TGI [56]: 16.3 µM; GI50 [5]: 7.66 µM; TGI [5]: 22.3 µM; GI50 [6]: 1.4 µM; TGI [6]: 3.39 µM; GI50 [7]: 6.7 µM; TGI [7]: 52.4 µM; GI50 [9]: 3.12 µM; TGI [9]: 12 µM; GI50 [10]: 2.46 µM; TGI [10]: 12.5 µM; GI50 [11]: 0.406 µM; TGI [11]: 14.1 µM; GI50 [12]: 11.9 µM; TGI [12]: 25.5 µM; GI50 [13]: 1.66 µM; TGI [13]: 9.15 µM; GI50 [14]: 3.79 µM; TGI [14]: 29.3 µM; GI50 [15]: 0.748 µM; TGI [15]: 12.6 µM; GI50 [16]: 1.54 µM; TGI [16]: 5.17 µM; GI50 [17]: 2.15 µM; TGI [17]: 5.84 µM; GI50 [18]: 2.44 µM; TGI [18]: 18.6 µM; GI50 [20]: 2.08 µM; TGI [20]: 16.2 µM; GI50 [21]: 8.13 µM; TGI [21]: 29.1 µM; GI50 [57]: 2.88 µM; TGI [57]: 25.2 µM; GI50 [22]: 1.76 µM; TGI [22]: 8.75 µM; GI50 [23]: 3.2 µM; TGI [23]: 45.7 µM; GI50 [24]: 0.675 µM; TGI [24]: 13.4 µM; GI50 [25]: 4.62 µM; TGI [25]: 33.6 µM; GI50 [27]: 9.02 µM; TGI [27]: 21.7 µM; GI50 [28]: 2.89 µM; TGI [28]: 16.6 µM; GI50 [29]: 2.53 µM; TGI [29]: 25.3 µM; GI50 [30]: 0.834 µM; TGI [30]: 17.9 µM; GI50 [31]: 0.327 µM; TGI [31]: 2.33 µM; GI50 [32]: 0.551 µM; TGI [32]: 10.1 µM; GI50 [33]: 0.445 µM; TGI [33]: 10.3 µM; GI50 [34]: 3.46 µM; TGI [34]: 25.3 µM; GI50 [35]: 1.81 µM; TGI [35]: 8.2 µM; GI50 [36]: 12.7 µM; TGI [36]: 26.5 µM; GI50 [37]: 3.88 µM; TGI [37]: 38.8 µM; GI50 [38]: 5.15 µM; TGI [38]: 30.1 µM; GI50 [39]: 2.43 µM; TGI [39]: 24.4 µM; GI50 [40]: 3.11 µM; TGI [40]: 9.01 µM; GI50 [41]: 3.22 µM; TGI [41]: 16.3 µM; GI50 [42]: 3.93 µM; TGI [42]: 19.3 µM; GI50 [43]: 1.99 µM; TGI [43]: 22.1 µM; GI50 [44]: 0.469 µM; TGI [44]: 14.7 µM; GI50 [45]: 1.08 µM; TGI [45]: 10.3 µM; GI50 [46]: 5.29 µM; TGI [46]: 24.6 µM; GI50 [47]: 1.76 µM; TGI [47]: 10.7 µM; GI50 [48]: 5.24 µM; TGI [48]: 27.1 µM; GI50 [49]: 1.24 µM; TGI [49]: 14.7 µM; GI50 [50]: 3.74 µM; TGI [50]: 39.4 µM; GI50 [51]: 2.84 µM; TGI [51]: 14.7 µM; GI50 [52]: 6.84 µM; TGI [52]: > 100 µM; GI50 [53]: 7.67 µM; TGI [53]: 25.6 µM; GI50 [58]: 2.78 µM; TGI [58]: 15.7 µM; GI50 [54]: 3.54 µM; TGI [54]: 16.9 µM
